The results in this text go back to ChEMBL document CHEMBL6096670, “Design, synthesis and biological evaluation of novel β-carbolines as antitumor agents via targeting autophagy in colorectal cancer” (Eur J Med Chem, 2025).

A value given as a limit tells only on which side of the number the result lay.

The subject of experiment [1] is BGC-823. The experiment in a line: Antiproliferative activity against human BGC-823 cells assessed as inhibition of cell growth incubated for 48 hrs by MTT assay. The class given is functional, cell-based. Conditions: BGC-823, 48 h. For orientation: Tetrazolium assays rely on reduction of a dye to a coloured formazan, in cell work by metabolically active cells.
Experiment [2] concerns MCF7. As to the kind of experiment: Antiproliferative activity against human MCF7 cells assessed as inhibition of cell growth incubated for 48 hrs by MTT assay. Particulars: MCF7, 48 h. The class given is functional, cell-based.
Experiment [3] concerns A-375. As to the kind of experiment: Antiproliferative activity against human A-375 cells assessed as inhibition of cell growth incubated for 48 hrs by MTT assay. In kind it is functional, cell-based. Conditions: A-375, 48 h.
The test system of experiment [4] is 786-0. As to the kind of experiment: Antiproliferative activity against human 786-0 cells assessed as inhibition of cell growth incubated for 48 hrs by MTT assay. In kind it is functional, cell-based. Conditions: 786-0, 48 h.
The test system of experiment [5] is HT-29. The experiment in a line: Antiproliferative activity against human HT-29 cells assessed as inhibition of cell growth incubated for 48 hrs by MTT assay. In kind it is functional, cell-based. Conditions: HT-29, 48 h.
Experiment [6] relates to HepG2. The experiment in a line: Antiproliferative activity against human HepG2 cells assessed as inhibition of cell growth incubated for 48 hrs by MTT assay. The class given is functional, cell-based. Conditions: HepG2, 48 h.
Experiment [7] has as its system CWR22R. The experiment in a line: Antiproliferative activity against human 22Rv1 cells assessed as inhibition of cell growth incubated for 48 hrs by MTT assay. The class given is functional, cell-based. Particulars: 22Rv1, 48 h.
For experiment [8], the system named is SK-OV-3. The experiment in a line: Antiproliferative activity against human SK-OV-3 cells assessed as inhibition of cell growth incubated for 48 hrs by MTT assay. Particulars: SK-OV-3, 48 h. The class given is functional, cell-based.
The test system of experiment [9] is HCT-116. The experiment in a line: Induction of apoptosis in human HCT-116 assessed as viable cells at 100 uM incubated for 24 hrs Annexin V FITC/PI double staining based flow cytometry (Rvb =90.0%). The class given is functional. Particulars: read-out: Activity. In general terms: In flow cytometry, cells or beads pass a laser one at a time.
Experiment [10] relates to HCT-116. As to the kind of experiment: Induction of apoptosis in human HCT-116 assessed as early apoptotic cells at 100 uM incubated for 24 hrs Annexin V FITC/PI double staining based flow cytometry (reference value: 1.07 %). The class given is functional.
The test system of experiment [11] is HCT-116. The experiment in a line: Induction of apoptosis in human HCT-116 assessed as late apoptotic cells at 100 uM incubated for 24 hrs Annexin V FITC/PI double staining based flow cytometry (reference value: 8.02 %). In kind it is functional.
Experiment [12] relates to HCT-116. As to the kind of experiment: Induction of apoptosis in human HCT-116 assessed as necrotic cells at 100 uM incubated for 24 hrs Annexin V FITC/PI double staining based flow cytometry (reference value: 0.94 %). In kind it is functional.
The subject of experiment [13] is HCT-116. As to the kind of experiment: Induction of apoptosis in human HCT-116 assessed as viable cells at 100 uM pretreated with Z-VAD-FMK for 30 mins followed by compound addition and measured after 24 hrs by Annexin V-FITC/PI double staining based flow cytometry (reference value: 90.8%). Particulars: read-out: Activity. The class given is functional.
Experiment [14] relates to HCT-116. As to the kind of experiment: Induction of apoptosis in human HCT-116 assessed as early apoptotic cells at 100 uM pretreated with Z-VAD-FMK for 30 mins followed by compound addition and measured after 24 hrs by Annexin V-FITC/PI double staining based flow cytometry (reference value: […]). The class given is functional.
The subject of experiment [15] is HCT-116. As to the kind of experiment: Induction of apoptosis in human HCT-116 assessed as late apoptotic cells at 100 uM pretreated with Z-VAD-FMK for 30 mins followed by compound addition and measured after 24 hrs by Annexin V-FITC/PI double staining based flow cytometry (reference value: 7.43 %). In kind it is functional.
The subject of experiment [16] is HCT-116. As to the kind of experiment: Induction of apoptosis in human HCT-116 assessed as necrotic cells at 100 uM pretreated with Z-VAD-FMK for 30 mins followed by compound addition and measured after 24 hrs by Annexin V-FITC/PI double staining based flow cytometry (reference value: 0.84 %). In kind it is functional.

In the case of `CCN(CC)CCCNCc1cc2c3ccccc3n(Cc3ccc(F)cc3)c2c(CNCCCN(CC)CC)n1`, the half-maximal inhibitory concentration (IC50) in experiment [1] was 8.81 µM; in experiment [2], 6.92 µM; in [3], 4.82 µM; in experiment [4] it was 5.42 µM; in experiment [5] it was 5.81 µM; in [6], 5.68 µM. For the same molecule, the IC50 in [7] was determined as 9.22 µM; in experiment [8], 7.85 µM.

Turning to `CCCCn1c2ccccc2c2cc(CNCCCN(CC)CC)nc(CNCCCN(CC)CC)c21`, the IC50 stood at 11.2 µM in experiment [1]; 10.5 µM in experiment [2]; 15.8 µM in experiment [3]; 9.32 µM in experiment [4]; 8.03 µM in [5]; 15.6 µM in [6]. The IC50 was 8.24 µM in experiment [7] and 15.8 µM in experiment [8].

As for `O=c1[nH]cc(F)c(=O)[nH]1` [FLUOROURACIL], the values for the viability at 100 µM in experiment [9] and in [13] were 43.6% and 75.5%, respectively. The Activity in experiment [10] was 39.6%; in experiment [11], 15.2%; in experiment [12], 1.62%; in [14], 3.01%; in experiment [15] it was 17.3%; in [16], 4.13%.

Turning to `CCN(CC)CCCNCc1cc2c([nH]c3ccccc32)c(CNCCCN(CC)CC)n1`, the IC50 was more than 20 µM in experiment [1]; more than 20 µM in [2]; more than 20 µM in experiment [3]; 14.9 µM in [4]; 12.7 µM in experiment [5]; more than 20 µM in experiment [6]. In addition, the values for the IC50 in [7] and in [8] were 16.1 µM and more than 20 µM, respectively.

Take `CCN(CC)CCCNCc1cc2c3ccccc3n(Cc3ccccc3)c2c(CNCCCN(CC)CC)n1`: the IC50 amounted to 7.24 µM in [1]; 15.2 µM in experiment [2]; 7.83 µM in experiment [3]; 10.6 µM in [4]; 5.54 µM in experiment [5]; 14.3 µM in experiment [6]. Besides, the half-inhibitory concentration (IC50) worked out at 11.2 µM in experiment [7] and 9.62 µM in experiment [8].

For the molecule `CCN(CC)CCCNCc1cc2c3ccccc3n(C)c2c(CNCCCN(CC)CC)n1`, the IC50 in [1] was 16.8 µM; in experiment [2], more than 20 µM; in experiment [3] it was more than 20 µM; in [4], 14.2 µM; in experiment [5], 8.62 µM; in experiment [6], more than 20 µM. For the same molecule, the IC50 was 12.6 µM in experiment [7] and more than 20 µM in experiment [8].

In general, IC50 refers to the midpoint of a concentration-inhibition curve.
